Measurements from patent US6921776B1, “Compound” (Sterix Limited, priority 1996, dated 2005).
Like-named read-outs stand apart in the source and are kept apart here. Blank lines part the entries; values can stand above or below the molecule they belong to.

Columns and labels:
[1] = target: T1, oestrone sulphatase (E1-STS) (Homo sapiens, UniProt P08842); conditions: cited from earlier work; for Mode of E1-STS inhibition: literature
T1 sequence (P08842 22-583): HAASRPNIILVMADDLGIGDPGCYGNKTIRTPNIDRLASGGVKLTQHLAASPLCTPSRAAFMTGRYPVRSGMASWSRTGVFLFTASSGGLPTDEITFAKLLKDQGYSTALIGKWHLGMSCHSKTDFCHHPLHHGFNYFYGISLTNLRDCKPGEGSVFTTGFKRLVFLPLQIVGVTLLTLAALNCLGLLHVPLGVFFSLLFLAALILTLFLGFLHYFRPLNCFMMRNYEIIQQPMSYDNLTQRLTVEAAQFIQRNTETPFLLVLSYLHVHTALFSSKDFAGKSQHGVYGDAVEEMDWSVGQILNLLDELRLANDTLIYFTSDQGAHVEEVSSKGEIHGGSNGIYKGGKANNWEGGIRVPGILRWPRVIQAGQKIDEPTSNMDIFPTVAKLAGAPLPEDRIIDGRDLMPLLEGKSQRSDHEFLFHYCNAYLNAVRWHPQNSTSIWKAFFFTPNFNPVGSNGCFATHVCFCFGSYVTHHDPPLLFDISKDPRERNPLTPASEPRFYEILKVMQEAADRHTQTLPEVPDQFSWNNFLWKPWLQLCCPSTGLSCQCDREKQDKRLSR

E1-STS [2] = target: T2, E1-STS (Homo sapiens, UniProt P08842); conditions: previous work, Ref. 28; cited from earlier work
T2 sequence (P08842 22-583): T1 sequence (P08842 22-583)

E1-STS [3] = target: T2, E1-STS; assay: Substrate test: hydrolysis of coumarin sulphates by placental microsomes in absence or presence of EMATE; conditions: 100 μg, 1 h, placental microsomes ± EMATE 10 μM
[4] = Chemical and thermal stability of coumarin sulphate; format: physicochemical; conditions: sodium hydroxide in methanol
[5] = target: T1, oestrone sulphatase (E1-STS); conditions: cited from earlier work
[6] = target: T1, oestrone sulphatase (E1-STS); conditions: for E1-STS inhibitory potency compared with COUMATE: placental microsomes
ovariectomized rats [7] = assay: Oestrogenicity after oral administration: E1S-stimulated uterine growth in ovariectomized rats; format: in vivo, rat
Source text: The oestrogenic activity of 17 was also studied.

[8] = target: T3, dehydroepiandrosterone sulphatase (DHA-STS) (Homo sapiens, UniProt P08842); conditions: read-out: IC50 for inhibition of DHEA sulphatase in placental microsomes; from Ref. 25; cited from earlier work
T3 sequence (P08842 22-583): T1 sequence (P08842 22-583)

[9] = target: T1, oestrone sulphatase (E1-STS); parameters: endogenous in cells; host or cells: MCF-7 breast cancer cells; conditions: 0.1 μM; cited from earlier work
rat liver DHA-STS = target: T4, rat liver DHA-STS (Rattus norvegicus, UniProt P15589); conditions: administered orally or subcutaneously; cited from earlier work
T4 construct: host or cells: rat liver, after dosing in vivo
T4 sequence (P15589 20-577): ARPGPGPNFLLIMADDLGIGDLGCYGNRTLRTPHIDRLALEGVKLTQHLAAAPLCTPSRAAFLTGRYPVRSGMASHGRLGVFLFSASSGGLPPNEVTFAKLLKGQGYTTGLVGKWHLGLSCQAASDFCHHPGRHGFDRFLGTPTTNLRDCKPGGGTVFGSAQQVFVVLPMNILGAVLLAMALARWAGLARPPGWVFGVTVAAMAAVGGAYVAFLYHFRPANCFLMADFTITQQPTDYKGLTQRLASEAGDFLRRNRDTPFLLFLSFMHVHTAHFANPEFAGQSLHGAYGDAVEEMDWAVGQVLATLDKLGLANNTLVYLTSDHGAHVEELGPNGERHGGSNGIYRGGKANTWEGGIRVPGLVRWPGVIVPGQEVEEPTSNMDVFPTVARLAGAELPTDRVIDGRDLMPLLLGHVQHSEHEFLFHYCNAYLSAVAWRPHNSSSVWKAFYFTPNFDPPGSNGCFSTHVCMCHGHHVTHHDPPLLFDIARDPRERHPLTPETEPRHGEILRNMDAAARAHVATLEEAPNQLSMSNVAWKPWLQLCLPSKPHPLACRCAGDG

[10] = target: T1, oestrone sulphatase (E1-STS); assay: Inhibition of oestrone sulphatase (E1-STS) in intact MCF-7 breast cancer cells; conditions: 10 μM
[11] = in vivo; cited from earlier work
E1-STS [12] = target: T5, E1-STS (Rattus norvegicus, UniProt P15589); assay: E1-STS activity in uteri of treated ovariectomised rats; format: in vivo; conditions: 1 mg/kg s.c. for 5 days
T5 construct: The E1-STS activity in the uteri obtained from these animals; from tissue; host or cells: uteri of ovariectomised rats dosed in vivo
T5 sequence (P15589 20-577): T4 sequence (P15589 20-577)

oestrone sulphatase = target: T6, oestrone sulphatase (Rattus norvegicus, UniProt P15589); assay: Sulphatase activity in white blood cells of rats after oral dosing; format: in vivo
T6 construct: from tissue; host or cells: white blood cells of orally dosed rats
T6 sequence (P15589 20-577): T4 sequence (P15589 20-577)

ovariectomised rats = assay: Oestrogenic activity: uterine weight in ovariectomised rats; format: in vivo, rat; conditions: 1 mg/kg s.c. for 5 days
[13] = target: T1, oestrone sulphatase (E1-STS); assay: Time- and concentration-dependent inactivation of oestrone sulphatase in placental microsomes (preincubation); format: biochemical
ovariectomized rats [14] = conditions: oral, from Ref. 31; cited from earlier work

Molecule: oestrone-3-N-sulphamate
Mode of E1-STS inhibition [1]: weaker non-time-dependent inactivators

Molecule: Coumarin-7-O-sulphamate [compound 13]
% Inhibition ± S.D. of E1-STS activity in placental microsomes ([5]; 10 μM (Table 1, reproduced from Ref. 28)): 78 ± 1%
% Inhibition of E1-STS activity in placental microsomes ([5]; 50 μM (footnote a, Ref. 28)): > 90%

Molecule: CCc1c(C)c2ccc(OS(N)(=O)=O)cc2oc1=O [compound 8, 3-Ethyl-4-methylcoumarin-7-O-sulphamate]
% Inhibition ± S.D. of E1-STS activity in placental microsomes ([6]; 0.1 μM (Table 1)): 57 ± 1%
% Inhibition ± S.D. of E1-STS activity in placental microsomes ([6]; 1 μM (Table 1)): 96 ± 1%
% Inhibition ± S.D. of E1-STS activity in placental microsomes ([6]; 10 μM (Table 1)): >99%
E1-STS inhibitory potency compared with COUMATE [6]: more potent E1-STS inhibitors than COUMATE

Molecule: NS(=O)(=O)Oc1ccc2c3c(c(=O)oc2c1)CCCCC3 [compound 17, 6-Oxo-8,9,10,11-tetrahydro-7H-cyclohepta-[c][1]benzopyran-3-O-sulphamate]
Oestrogenicity (ovariectomized rats [7]): devoid of oestrogenicity
Oestrogenicity (ovariectomized rats [7]; listed as 667COUMATE): not being oestrogenic

Molecule: C[C@]12CC[C@@H]3c4ccc(OS(N)(=O)=O)cc4CC[C@H]3[C@@H]1CCC2=O [EMATE, oestrone-3-sulphamate]
IC50 [8]: 110 nM
IC50 [6]: 25 nM
% inhibition of E1-STS activity in intact MCF-7 cells [9]: more than 99%
Mode of E1-STS inhibition [1]: time- and concentration-dependent manner
KI (inactivation) ([1]; read-out: Apparent Ki for E1-STS inactivation, from Ref. 25): 670 nM
Inhibition of rat liver DHA-STS activity (rat liver DHA-STS): 99%

Molecule: CCc1cc(=O)oc2cc(OS(N)(=O)=O)ccc12 [compound 4, 4-Ethylcoumarin-7-O-sulphamate]
% Inhibition ± S.D. of E1-STS activity in placental microsomes ([6]; 0.1 μM (Table 1)): 35 ± 1%
% Inhibition ± S.D. of E1-STS activity in placental microsomes ([6]; 1 μM (Table 1)): 88 ± 1%
% Inhibition ± S.D. of E1-STS activity in placental microsomes ([6]; 10 μM (Table 1)): >99%
E1-STS inhibitory potency compared with COUMATE [6]: more potent E1-STS inhibitors than COUMATE

Molecule: oestrone-3-S-sulphamate
Mode of E1-STS inhibition [1]: weaker non-time-dependent inactivators

Molecule: CCCc1cc(=O)oc2cc(OS(N)(=O)=O)ccc12 [compound 6, 4-(n-Propyl)coumarin-7-O-sulphamate]
% Inhibition ± S.D. of E1-STS activity in placental microsomes ([6]; 0.1 μM (Table 1)): 42 ± 2%
% Inhibition ± S.D. of E1-STS activity in placental microsomes ([6]; 1 μM (Table 1)): 94 ± 1%
% Inhibition ± S.D. of E1-STS activity in placental microsomes ([6]; 10 μM (Table 1)): 96 ± 1%
E1-STS inhibitory potency compared with COUMATE [6]: more potent E1-STS inhibitors than COUMATE

Molecule: CCCc1c(C)c2ccc(OS(N)(=O)=O)cc2oc1=O [compound 11, 4Methyl-3-(n-propyl)coumarin-7-O-sulphamate]
% Inhibition ± S.D. of E1-STS activity in placental microsomes ([6]; 0.1 μM (Table 1)): 83 ± 1%
% Inhibition ± S.D. of E1-STS activity in placental microsomes ([6]; 1 μM (Table 1)): 97 ± 1%
% Inhibition ± S.D. of E1-STS activity in placental microsomes ([6]; 10 μM (Table 1)): >99%
E1-STS inhibitory potency compared with COUMATE [6]: more potent E1-STS inhibitors than COUMATE

Molecule: C[C@]12CC[C@@H]3c4ccc(OS(=O)(=O)O)cc4CC[C@H]3[C@@H]1CCC2=O [E1S, oestrone sulphate]
Half-life in blood [11]: 10 to 12 h

Now from value to molecule, other results behind:

melting point: 172 to 175 °C (dec.)
Molecule: Cc1cc(=O)oc2cc(OS(=O)(=O)[O-])ccc12.[Na+] [compound 12, 7-(Sulphoxy)-4-Methylcoumarin, sodium salt]
Substrate for E1-STS (E1-STS [2]): substrate for E1-STS
Substrate for E1-STS (E1-STS [3]): the coumarin sulphate is indeed a substrate for the sulphatase
Stability in basic and acidic conditions [4]: stable in bases such as sodium hydroxide in methanol but not in acidic conditions

% Inhibition ± S.D. of E1-STS activity in placental microsomes ([6]; 0.01 μM (Table 2)): <10%
% Inhibition ± S.D. of E1-STS activity in placental microsomes ([6]; 0.1 μM (Table 2)): 31 ± 5%
% Inhibition ± S.D. of E1-STS activity in placental microsomes ([6]; 1 μM (Table 2)): 94 ± 2%
Molecule: NS(=O)(=O)Oc1ccc2c(c1)OC(=O)CC1=C2CCCC1 [compound 22, 6-Oxo-6,7,8,9,10,11-hexahydrodibenz[b,d]oxepin-3-O-sulphamate]

% inhibition of E1-STS in intact MCF-7 cells [10]: 71.5%
Molecule: NS(=O)(=O)Oc1ccc2c(C(F)(F)F)cc(=O)oc2c1 [compound 16]

% Inhibition ± S.D. of E1-STS activity in placental microsomes ([6]; 0.01 μM (Table 2)): 17 ± 2%
% Inhibition ± S.D. of E1-STS activity in placental microsomes ([6]; 0.1 μM (Table 2)): 89 ± 1%
Inhibition of E1-STS in placental microsomes ([6]; 1 μM): almost complete inhibition
% Inhibition ± S.D. of E1-STS activity in placental microsomes ([6]; 1 μM (Table 2)): >99%
Molecule: NS(=O)(=O)Oc1ccc2c3c(c(=O)oc2c1)CCCCCC3 [compound 20, 6-Oxo-7,8,9,10,11,12-hexahydro-cycloocta-[c][1]benzopyran-3-O-sulphamate]

Substrate for E1-STS (E1-STS [3]): is a substrate for this enzyme
Molecule: O=c1oc2cc(OS(=O)(=O)O)ccc2c2c1CCCCC2 [compound 18, 6-Oxo-3-sulfooxy-8,9,10,11-tetrahydro-7H-cyclohepta-[c][1]-benzopyran]

Inhibition of E1-STS activity in uteri compared with untreated animals (E1-STS [12]): 89.4%
Oral activity in rats (oestrone sulphatase): potent oral activity
% Inhibition of sulphatase activity in white blood cells, MD (oestrone sulphatase; daily for seven days 0.1 mg/kg): 65%
% Inhibition of sulphatase activity in white blood cells, MD (oestrone sulphatase; daily for seven days 1.0 mg/kg): 85%
% Inhibition of sulphatase activity in white blood cells, MD (oestrone sulphatase; daily for seven days 10.0 mg/kg): 89%
Molecule: Cc1cc(=O)oc2cc(OS(N)(=O)=O)ccc12 [compound 14]
Effect on uterine weight (oestrogenic activity) (ovariectomised rats): did not result in any significant increase in the uterine weight
Mode of E1-STS inhibition [13]: time- and concentration-dependent manner in a biphasic fashion
Oestrogenicity (ovariectomized rats [14]): devoid of oestrogenicity
% Inhibition ± S.D. of E1-STS activity in placental microsomes ([5]; 0.1 μM (Table 1, reproduced from Ref. 28)): <10%
% Inhibition ± S.D. of E1-STS activity in placental microsomes ([5]; 1 μM (Table 1, reproduced from Ref. 28)): 63 ± 1%
